We go through 26 compounds from patent US12091405B2, “Substituted pyrazole compounds as indoleamine 2,3-dioxygenase inhibitors” (Merck Sharp & Dohme LLC, priority 2018, dated 2024).

Each structure is given as a SMILES string.

The target of this assay is IDO1 (Homo sapiens, UniProt P14902). As to the kind of experiment: IDO1 Cellular Assay in HeLa Cells Stimulated with IFNγ. Format: cell-based. Conditions: IFNγ 100 ng/mL, 300 uM L-tryptophan, about 48 hours, fluorescence readout, read-out: IDO1 HELA Cell Assay, IC50.
Chain of IDO1 (P14902 whole entry): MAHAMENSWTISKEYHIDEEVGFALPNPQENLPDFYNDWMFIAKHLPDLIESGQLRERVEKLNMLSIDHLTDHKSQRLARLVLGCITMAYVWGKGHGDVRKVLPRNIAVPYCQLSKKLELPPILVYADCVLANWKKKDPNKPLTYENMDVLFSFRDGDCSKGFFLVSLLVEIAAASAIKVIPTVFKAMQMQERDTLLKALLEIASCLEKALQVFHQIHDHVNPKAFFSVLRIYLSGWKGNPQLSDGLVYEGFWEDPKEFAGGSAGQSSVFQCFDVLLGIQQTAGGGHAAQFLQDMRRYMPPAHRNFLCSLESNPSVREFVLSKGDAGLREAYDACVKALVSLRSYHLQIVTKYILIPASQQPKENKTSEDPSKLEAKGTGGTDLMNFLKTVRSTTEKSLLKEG

With `Cc1cc(F)cc(C2CCN(C(=O)Cn3nc(C(=O)N4C[C@@H](C)O[C@@H](C)C4)c4c3CCC4)CC2)c1` [Example 90, 2-{3-[(2R,6S)-2,6-dimethylmorpholine-4-carbonyl]-5,6-dihydrocyclopenta[c]pyrazol-1(4H)-yl}-1-[4-(3-fluoro-5-methylphenyl)piperidin-1-yl]ethan-1-one], the 50% inhibitory concentration (IC50) (usually the concentration that gives 50% inhibition) turned out to be 9.9 nM.

In the case of `Cc1ccc(C2CCN(C(=O)Cn3nc(C(=O)N4C[C@@H](C)O[C@@H](C)C4)c4c3CCC4)CC2)cc1F` [Example 91, 2-{3-[(2R,6S)-2,6-dimethylmorpholine-4-carbonyl]-5,6-dihydrocyclopenta[c]pyrazol-1(4H)-yl}-1-[4-(3-fluoro-4-methylphenyl)piperidin-1-yl]ethan-1-one], the IC50 was 11.9 nM.

Turning to `Cc1cc(F)ccc1C1CCN(C(=O)Cn2nc(C(=O)N3C[C@@H](C)O[C@@H](C)C3)c3c2CCC3)CC1` [Example 92, 2-{3-[(2R,6S)-2,6-dimethylmorpholine-4-carbonyl]-5,6-dihydrocyclopenta[c]pyrazol-1(4H)-yl}-1-[4-(4-fluoro-2-methylphenyl)piperidin-1-yl]ethan-1-one], the half-maximal inhibitory concentration (IC50) came out at 14.4 nM.

As to `C[C@@H]1CN(C(=O)c2nn(CC(=O)N3CCC(c4ccc5c(c4)CCO5)CC3)c3c2CCC3)C[C@H](C)O1` [Example 93, 1-[4-(2,3-dihydro-1-benzofuran-5-yl)piperidin-1-yl]-2-{3-[(2R,6S)-2,6-dimethylmorpholine-4-carbonyl]-5,6-dihydrocyclopenta[c]pyrazol-1(4H)-yl}ethan-1-one], the IC50 was 17.8 nM. As to `Cc1cc(C2CCN(C(=O)Cn3nc(C(=O)N4C[C@@H](C)O[C@@H](C)C4)c4c3CCC4)CC2)ccc1F` [Example 94, 2-{3-[(2R,6S)-2,6-dimethylmorpholine-4-carbonyl]-5,6-dihydrocyclopenta[c]pyrazol-1(4H)-yl}-1-[4-(4-fluoro-3-methylphenyl)piperidin-1-yl]ethan-1-one], the IC50 was found to be 18.9 nM. For the compound `COc1c(F)cc(C2CCN(C(=O)Cn3nc(C(=O)N4C[C@@H](C)O[C@@H](C)C4)c4c3CCC4)CC2)cc1Cl` [Example 95, 1-[4-(3-chloro-5-fluoro-4-methoxyphenyl)piperidin-1-yl]-2-{3-[(2R,6S)-2,6-dimethylmorpholine-4-carbonyl]-5,6-dihydrocyclopenta[c]pyrazol-1(4H)-yl}ethan-1-one], the IC50 is 19.3 nM. Under `CCc1cccc(C2CCN(C(=O)Cn3nc(C(=O)N4C[C@@H](C)O[C@@H](C)C4)c4c3CCC4)CC2)c1` [Example 96, 2-{3-[(2R,6S)-2,6-dimethylmorpholine-4-carbonyl]-5,6-dihydrocyclopenta[c]pyrazol-1(4H)-yl}-1-[4-(3-ethylphenyl)piperidin-1-yl]ethan-1-one] stands 21.5 nM. The same measure for `C[C@@H]1CN(C(=O)c2nn(CC(=O)N3CCC(c4cccc(F)c4Cl)CC3)c3c2CCC3)C[C@H](C)O1` [Example 97, 1-[4-(2-chloro-3-fluorophenyl)piperidin-1-yl]-2-{3-[(2R,6S)-2,6-dimethylmorpholine-4-carbonyl]-5,6-dihydrocyclopenta[c]pyrazol-1(4H)-yl}ethan-1-one]: 24.1 nM; for `Cc1ccc(F)cc1C1CCN(C(=O)Cn2nc(C(=O)N3C[C@@H](C)O[C@@H](C)C3)c3c2CCC3)CC1` [Example 98, 2-{3-[(2R,6S)-2,6-dimethylmorpholine-4-carbonyl]-5,6-dihydrocyclopenta[c]pyrazol-1(4H)-yl}-1-[4-(5-fluoro-2-methylphenyl)piperidin-1-yl]ethan-1-one]: 27.1 nM.

Regarding `C[C@@H]1CN(C(=O)c2nn(CC(=O)N3CCC(c4cc(F)cc(Cl)c4)CC3)c3c2CCC3)C[C@H](C)O1` [Example 99, 1-[4-(3-chloro-5-fluorophenyl)piperidin-1-yl]-2-{3-[(2R,6S)-2,6-dimethylmorpholine-4-carbonyl]-5,6-dihydrocyclopenta[c]pyrazol-1(4H)-yl}ethan-1-one], the IC50 came out at 27.4 nM. Regarding `C[C@@H]1CN(C(=O)c2nn(CC(=O)N3CCC(c4ccc(F)c(Cl)c4)CC3)c3c2CCC3)C[C@H](C)O1` [Example 100, 1-[4-(3-chloro-4-fluorophenyl)piperidin-1-yl]-2-{3-[(2R,6S)-2,6-dimethylmorpholine-4-carbonyl]-5,6-dihydrocyclopenta[c]pyrazol-1(4H)-yl}ethan-1-one], the IC50 came out at 27.7 nM. `C[C@@H]1CN(C(=O)c2nn(CC(=O)N3CCC(c4cc(F)c(Cl)c(F)c4)CC3)c3c2CCC3)C[C@H](C)O1` [Example 101, 1-[4-(4-chloro-3,5-difluorophenyl)piperidin-1-yl]-2-{3-[(2R,6S)-2,6-dimethylmorpholine-4-carbonyl]-5,6-dihydrocyclopenta[c]pyrazol-1(4H)-yl}ethan-1-one]: the IC50 amounted to 27.9 nM. For `COc1c(C)cc(C2CCN(C(=O)Cn3nc(C(=O)N4C[C@@H](C)O[C@@H](C)C4)c4c3CCC4)CC2)cc1C` [Example 102, 2-{3-[(2R,6S)-2,6-dimethylmorpholine-4-carbonyl]-5,6-dihydrocyclopenta[c]pyrazol-1(4H)-yl}-1-[4-(4-methoxy-3,5-dimethylphenyl)piperidin-1-yl]ethan-1-one], the IC50 is 28.9 nM.

Regarding `C[C@@H]1CN(C(=O)c2nn(CC(=O)N3CCC(c4cccc(C5CC5)c4)CC3)c3c2CCC3)C[C@H](C)O1` [Example 103, 1-[4-(3-cyclopropylphenyl)piperidin-1-yl]-2-{3-[(2R,6S)-2,6-dimethylmorpholine-4-carbonyl]-5,6-dihydrocyclopenta[c]pyrazol-1(4H)-yl}ethan-1-one], the half-maximal inhibitory concentration (IC50) was determined as 29.6 nM. Regarding `C[C@@H]1CN(C(=O)c2nn(CC(=O)N3CCC(c4cccc(C(F)(F)F)c4F)CC3)c3c2CCC3)C[C@H](C)O1` [Example 104, 2-{3-[(2R,6S)-2,6-dimethylmorpholine-4-carbonyl]-5,6-dihydrocyclopenta[c]pyrazol-1(4H)-yl}-1-{4-[2-fluoro-3-(trifluoromethyl)phenyl]piperidin-1-yl}ethan-1-one], the IC50 is 29.8 nM. As for `Cc1ccc(C2CCN(C(=O)Cn3nc(C(=O)N4C[C@@H](C)O[C@@H](C)C4)c4c3CCC4)CC2)c(C)c1` [Example 105, 2-{3-[(2R,6S)-2,6-dimethylmorpholine-4-carbonyl]-5,6-dihydrocyclopenta[c]pyrazol-1(4H)-yl}-1-[4-(2,4-dimethylphenyl)piperidin-1-yl]ethan-1-one], the IC50 came to 30.3 nM.

Regarding `Cc1cc(Cl)ccc1C1CCN(C(=O)Cn2nc(C(=O)N3C[C@@H](C)O[C@@H](C)C3)c3c2CCC3)CC1` [Example 106, 1-[4-(4-chloro-2-methylphenyl)piperidin-1-yl]-2-{3-[(2R,6S)-2,6-dimethylmorpholine-4-carbonyl]-5,6-dihydrocyclopenta[c]pyrazol-1(4H)-yl}ethan-1-one], the IC50 is 30.3 nM. In the case of `C[C@@H]1CN(C(=O)c2nn(CC(=O)N3CCC(c4cccc(Cl)c4)CC3)c3c2CCC3)C[C@H](C)O1` [Example 107, 1-[4-(3-chlorophenyl)piperidin-1-yl]-2-{3-[(2R,6S)-2,6-dimethylmorpholine-4-carbonyl]-5,6-dihydrocyclopenta[c]pyrazol-1(4H)-yl}ethan-1-one], the IC50 stood at 31.5 nM. Under `COc1cccc(C2CCN(C(=O)Cn3nc(C(=O)N4C[C@@H](C)O[C@@H](C)C4)c4c3CCC4)CC2)c1` [Example 108, 2-{3-[(2R,6S)-2,6-dimethylmorpholine-4-carbonyl]-5,6-dihydrocyclopenta[c]pyrazol-1(4H)-yl}-1-[4-(3-methoxyphenyl)piperidin-1-yl]ethan-1-one] stands 37.9 nM; under `CCc1ccccc1C1CCN(C(=O)Cn2nc(C(=O)N3C[C@@H](C)O[C@@H](C)C3)c3c2CCC3)CC1` [Example 109, 2-{3-[(2R,6S)-2,6-dimethylmorpholine-4-carbonyl]-5,6-dihydrocyclopenta[c]pyrazol-1(4H)-yl}-1-[4-(2-ethylphenyl)piperidin-1-yl]ethan-1-one], 38.2 nM.

`COc1c(F)cc(F)cc1C1CCN(C(=O)Cn2nc(C(=O)N3C[C@@H](C)O[C@@H](C)C3)c3c2CCC3)CC1` [Example 110, 1-[4-(3,5-difluoro-2-methoxyphenyl)piperidin-1-yl]-2-{3-[(2R,6S)-2,6-dimethylmorpholine-4-carbonyl]-5,6-dihydrocyclopenta[c]pyrazol-1(4H)-yl}ethan-1-one]: the IC50 was found to be 39.3 nM. `Cc1ccc(C2CCN(C(=O)Cn3nc(C(=O)N4C[C@@H](C)O[C@@H](C)C4)c4c3CCC4)CC2)cc1Cl` [Example 111, 1-[4-(3-chloro-4-methylphenyl)piperidin-1-yl]-2-{3-[(2R,6S)-2,6-dimethylmorpholine-4-carbonyl]-5,6-dihydrocyclopenta[c]pyrazol-1(4H)-yl}ethan-1-one]: the IC50 was found to be 40.3 nM. Turning to `C[C@@H]1CN(C(=O)c2nn(CC(=O)N3CCC(c4ccc(Cl)c(F)c4)CC3)c3c2CCC3)C[C@H](C)O1` [Example 112, 1-[4-(4-chloro-3-fluorophenyl)piperidin-1-yl]-2-{3-[(2R,6S)-2,6-dimethylmorpholine-4-carbonyl]-5,6-dihydrocyclopenta[c]pyrazol-1(4H)-yl}ethan-1-one], the IC50 came out at 40.6 nM.

Take `C[C@@H]1CN(C(=O)c2nn(CC(=O)N3CCC(c4ccccc4C4CC4)CC3)c3c2CCC3)C[C@H](C)O1` [Example 113, 1-[4-(2-cyclopropylphenyl)piperidin-1-yl]-2-{3-[(2R,6S)-2,6-dimethylmorpholine-4-carbonyl]-5,6-dihydrocyclopenta[c]pyrazol-1(4H)-yl}ethan-1-one]: the IC50 stood at 42.6 nM. With `C[C@@H]1CN(C(=O)c2nn(CC(=O)N3CCC(c4ccc(Cl)cc4)CC3)c3c2CCC3)C[C@H](C)O1` [Example 114, 1-[4-(4-chlorophenyl)piperidin-1-yl]-2-{3-[(2R,6S)-2,6-dimethylmorpholine-4-carbonyl]-5,6-dihydrocyclopenta[c]pyrazol-1(4H)-yl}ethan-1-one], the IC50 was determined as 45.8 nM.

In the case of `COc1c(F)cccc1C1CCN(C(=O)Cn2nc(C(=O)N3C[C@@H](C)O[C@@H](C)C3)c3c2CCC3)CC1` [Example 115, 2-{3-[(2R,6S)-2,6-dimethylmorpholine-4-carbonyl]-5,6-dihydrocyclopenta[c]pyrazol-1(4H)-yl}-1-[4-(3-fluoro-2-methoxyphenyl)piperidin-1-yl]ethan-1-one], the IC50 worked out at 48.5 nM.
